The test system of test [1] is Melanoderms™. In words: Pigment production by Living Skin Equivalents (Melanoderms). As to conditions: Homo sapiens, 336 h, 14 days, normalized to protein levels, read-out: Inhibition of melanin production (%) in Melanoderms™ compared to control. It counts as cell-based. The source says: So called reconstructed pigmented 'skin' cultures containing keratinocytes and melanocytes are commercially available and for example can be purchased from MatTek Corp, 200, Homer Avenue, Ashland, MA, USA, under the trade name Melanoderm™. Melanoderms™ (catalogue reference MEL-300) containing melanocytes from […] donor skin were maintained in EPI-100-NMM113 media following the manufacturer's instructions and using standard methods for the maintenance of cultured mammalian cells under aseptic conditions. The Melanoderm™ cultures were treated with test agents for a total of 14 days. During the 14 day culture period the melanocytes in the Melanoderm™ cultures synthesise melanin in specialised vesicular structures called melanosomes. The pigmented melanosomes are transferred to the adjacent keratinocytes and the transferred-melanosomes tend to accumulate over the nucleus of the keratinocytes. This process is the same as occurs in skin in vivo and accordingly the Melanoderm™ culture is considered to be a very good test 'skin tissue' to mimic the effect of the skin pigmentation process in vivo. A compound that leads to a reduction in melanin production in the Melanoderm™ culture over 14 days by 10 % or more is considered to have a positive pigment reducing effect. It is important that the reduction in pigment occurs without substantive loss of cell viability such that the inhibitory effect of the test compound is due to its biological function rather than due to cell toxicity.
Culture media changes and re-dosing of compounds at selected concentrations took place every 2 or 3 days during the test period. Melanoderm™ cultures were also treated with control materials including the vehicle (dimethylsulphoxide; DMSO) used to dissolve the test material and a positive control material known to lead to the synthesis of reduced amounts of melanin in the cultures. Ketoconazole and/or 4-ethylresorcinol were used as positive controls. After 14 days culture, transmitted-light microscopy images were captured for every culture using a Leica DM IL microscope at x20 magnification.
The cell viability of the cultures was assessed using the so called WST-1 (Water Soluble Tetrazolium Salt -1) assay purchased from Roche Applied Science and following the manufacturer's instructions. The stable tetrazolium salt WST-1 is cleaved to a soluble formazan dye by a complex cellular mechanism that occurs primarily at the cell surface. This bioreduction is largely dependent on the glycolytic production of NADPH in viable cells. Therefore, the amount of soluble formazan dye formed in the culture medium directly correlates to the number of metabolically active cells in the culture. Cultures were incubated with WST-1 in the medium for 1 hour and production of formazan measured at 450 nm using a spectrophotometer plate reader, eg a BMG Labtech FLUOstar plate reader. Cultures were considered 'viable' if they generated greater than 80 % of the control value of formazan product. Subsequently the culture was washed briefly in phosphate buffer solution (PBS) and total melanin and protein extracted together from each culture using 250 µl Solvable (trademark, Perkin Elmer product 6NE9100) reagent at 60°C overnight as recommended by the manufacturer. The total protein content using a sample of the extracts was determined using the so called BCA (bicinchoninic acid) assay. The BCA assay may be purchased from Pierce Chemical Company and conducted following the manufacturer's instructions. Melanin was determined by measuring the absorbance at 485 nm, for example using a BMG Labtech FLUOstar plate reader. The amount of melanin extracted from each culture was determined by reference to a standard synthetic-melanin curve (Sigma Aldrich Chemical Co; catalogue reference M8631).
Melanin levels in each culture were expressed as values normalised to the amount of protein in the cultures and compared to control vehicle treated cultures. […]

In test [2] the test system is B16 mouse melanoma cells. In words: Inhibition of pigment (melanin) production in B16 mouse melanoma cells. It counts as cell-based. As to conditions: 72 h, 3 days incubation, average of 4 wells, read-out: % of melanin inhibition in B16 mouse melanoma cells assay compared to control, normalised to protein levels. The source says: B16 mouse melanoma cells are widely available for example by purchase from the American Type Culture Collection (ATCC) and are routinely used by those skilled in the art to assay pigment production. The cells make and secrete melanin, a dark pigment, into the medium as the cells approach confluence. Methods for general cell culture may be easily accessed in text books and on-line (eg General Techniques of Cell Culture; M.A. Harrison and I.F. Rae Authors; Cambridge University Press ISBN 052157496X)
B16 mouse melanoma cells were maintained in cell culture and used for tests in antibiotic free Lonza Biowhittaker (BE12-662F) media (50ml fetal bovine serum and 5 ml I-glutamine (Sigma G7513) per 500 ml bottle).
The cells were maintained and grown at 37°C in an atmosphere of 5 % CO2. Trypsin/ethylene diamine tetraacetic acid (EDTA; Sigma T3924) and Dulbeccos Phosphate Buffered Saline (DPBS; Sigma D8537) were used to passage the cells as they approached ≥80 % confluence, diluting the cells by one tenth for maintenance culture.
For the pigment reduction assays, 48 well plates were seeded with 2.5 x 10^4 cells per well in phenol red-free, antibiotic-free medium (Sigma D1145) supplemented with foetal bovine serum and glutamine. Care was taken to make sure less adherent cells were not lost during the seeding process.
The plates were incubated overnight at 37°C/5 % CO2 atmosphere. The media was removed from the plates one-by-one and fresh media containing the test compound or control additions was added to each well. Compounds were prepared as stock solutions at 1000 fold higher concentration than that used for assay in dimethylsulphoxide (DMSO). Control media additions included 0.1 % DMSO, media alone and positive control(s) known to inhibit pigment production such as ketoconazole or 4-ethylresorcinol. The cells were incubated at 37°C/5 % CO2 atmosphere for a further 3 days. Cultures were assessed for melanin secretion into the medium and, as controls for toxicity of the added ingredients, for protein level and metabolic activity. A reduction in metabolic activity or protein levels is indicative of cell toxicity. The most desirable compounds therefore in the assay are those that show melanin production inhibition without loss of metabolic function or reduction in protein levels.
Media was removed from the cell plates and put into storage plates. The plates were sealed until assayed later in the day. Melanin was measured by determining optical density at 450 nm and making a comparison against melanin standards (Sigma M8631) made up anew on each day of testing. The standards used were 1000 µg/ml; 500 µg/ml; 250 µg/ml; 125 µg/ml; 62.5 µg/ml; 31.25 µg/ml; and 15.625 µg/ml.
Without delay, 100 µl of RIPA buffer (Sigma R0278) with protease inhibitor (Sigma S8830- use as per Sigma instructions) was added to the wells and the plates frozen at -20°C until the protein assessment was carried out. For example Pierce BCA Protein Assay (Thermo Scientific # 23225) can be used as per manufacturer's instructions with 10 µl of sample for each replicate.
Control and test melanin values were calculated as the average of results from 4 wells, corrected for protein levels in the cultures. The percent reduction in melanin production was calculated for each compound concentration, setting the melanin production of control incubations (vehicle alone) at 100%. Compound concentrations causing > 20% loss of WST activity are considered toxic and not considered to be effective melanin inhibitors. A compound causing > 10% reduction of melanin production into the medium was considered to be an inhibitor. Table 1: B16 mouse melanoma cells assay results for compounds of the first aspect of the invention

SMILES strings stand for the structures.

The term inhibition denotes the relative decrease from the control value, in per cent.

As for `N/C(=N\N=C\c1csc2ccccc12)NCc1ccc(F)cc1` [NC-0517, (E)-1-amino-1-[(2E)-(1-benzothiophen-3-ylmethylidene)hydrazinylidene]-N-(4-fluorobenzyl)methanaminium iodide], in test [1], the inhibition at 5 µM turned out to be 4% and the inhibition at 10 µM came to 20%. Moreover, in test [2], the inhibition at 1 µM was 32% and the inhibition at 5 µM amounted to 35%.

Take `COC(=O)c1ccc(CN/C(N)=N/N=C/c2ccc3ccccc3n2)cc1` [NC-0511, (E)-1-amino-N-[4-(methoxycarbonyl)benzyl]-1-[(2E)-(quinolin-2-ylmethylidene)hydrazinylidene]methanaminium iodide]: in test [1], the inhibition at 5 µM was 27% and the inhibition at 10 µM stood at 19%. Besides, in test [2], the inhibition at 1 µM was determined as 54% and the inhibition at 5 µM is 100%.

For `COC(=O)c1ccc(CN/C(N)=N/N=C/c2csc3ccccc23)cc1` [NC-0510, (E)-1-amino-1-[(2E)-(1-benzothiophen-3-ylmethylidene)hydrazinylidene]-N-[4-(methoxycarbonyl)benzyl]methanaminium iodide], in test [1], the inhibition at 5 µM is 18% and the inhibition at 10 µM was 19%. In test [2], the inhibition at 1 µM is 17% and the inhibition at 5 µM amounted to 29%.

As for `N/C(=N\N=C\c1csc2ccccc12)NCc1ccc(Cl)c(Cl)c1` [NC-0515, (E)-1-amino-1-[(2E)-(1-benzothiophen-3-ylmethylidene)hydrazinylidene]-N-(3,4-dichlorobenzyl)methanaminium iodide], in test [2], the inhibition at 1 µM turned out to be 0% and the inhibition at 5 µM came to 54%.

Turning to `COc1ccc(CN/C(N)=N/N=C/c2cc3ccccc3o2)cc1` [NC-0531, (E)-1-amino-1-[(2E)-(1-benzofuran-2-ylmethylidene)hydrazinylidene]-N-(4-methoxybenzyl)methanaminium iodide], in test [1], the inhibition at 5 µM was 35% and the inhibition at 10 µM was determined as 40%. In test [2], the inhibition at 1 µM came out at 39% and the inhibition at 5 µM turned out to be 39%.

With `Cc1ccc2[nH]c3c(c2c1)CCC/C3=N/N=C(\N)NCc1c(Cl)cccc1Cl` [NC-0537, (E)-1-amino-N-(2,6-dichlorobenzyl)-1-{(2Z)-[6-methyl-2,3,4,9-tetrahydro-1H-carbazol-1-ylidene]hydrazinylidene}methanaminium iodide], in test [2], the inhibition at 1 µM worked out at 51% and the inhibition at 5 µM is 37%.

On to `COC(=O)c1cccc(CN/C(N)=N/N=C/c2csc3ccccc23)c1` [NC-0525, (E)-1-amino-1-[(2E)-(1-benzothiophen-3-ylmethylidene)hydrazinylidene]-N-[3-(methoxycarbonyl)benzyl]methanaminium iodide], for which, in test [2], the inhibition at 1 µM came to 18% and the inhibition at 5 µM was determined as 100%.

With `N/C(=N\N=C\c1ccc(-c2ccncc2)cc1)NCc1ccc(O)cc1` [NC-0498, (E)-1-amino-N-(4-hydroxybenzyl)-1-{(2E)-[4-(pyridin-4-yl)benzylidene]hydrazinylidene}methanaminium iodide], the inhibition at 10 µM in test [1] amounted to 53%. Further, in test [2], the inhibition at 1 µM was determined as 0% and the inhibition at 5 µM was 33%.

Take `Cc1ccc2[nH]c3c(c2c1)CCC/C3=N/N=C(\N)NCc1ccc(F)cc1` [NC-0536, (E)-1-amino-N-(4-fluorobenzyl)-1-{(2Z)-[6-methyl-2,3,4,9-tetrahydro-1H-carbazol-1-ylidene]hydrazinylidene}methanaminium iodide]: in test [2], the inhibition at 1 µM is 24% and the inhibition at 5 µM was determined as 8%.

Take `COc1ccc(CN/C(N)=N/N=C/c2csc3ccccc23)cc1` [NC-0528, (E)-1-amino-1-[(2E)-(1-benzothiophen-3-ylmethylidene)hydrazinylidene]-N-(4-methoxybenzyl)methanaminium iodide]: in test [2], the inhibition at 1 µM stood at 3% and the inhibition at 5 µM is 73%.

Turning to `COC(=O)c1ccc(CN/C(N)=N/N=C/c2cc3ccccc3s2)cc1` [NC-0522, (E)-1-amino-1-[(2E)-(1-benzothiophen-2-ylmethylidene)hydrazinylidene]-N-[4-(methoxycarbonyl)benzyl]methanaminium iodide], in test [1], the inhibition at 5 µM was determined as 34% and the inhibition at 10 µM was 31%. Also, in test [2], the inhibition at 1 µM turned out to be 59% and the inhibition at 5 µM amounted to 53%.

Take `COC(=O)c1ccc(CN/C(N)=N/N=C/c2cc3ccccc3o2)cc1` [NC-0521, (E)-1-amino-1-[(2E)-(1-benzofuran-2-ylmethylidene)hydrazinylidene]-N-[4-(methoxycarbonyl)benzyl]methanaminium iodide]: the inhibition at 5 µM in test [1] was 35%. In test [2], the inhibition at 1 µM turned out to be 46% and the inhibition at 5 µM came to 64%.

`N/C(=N\N=C\c1cc2ccccc2o1)NCc1ccccc1` [NC-0519, (E)-1-amino-1-[(2E)-(1-benzofuran-2-ylmethylidene)hydrazinylidene]-N-benzylmethanaminium iodide]: in test [1], the inhibition at 5 µM came to 40% and the inhibition at 10 µM came out at 47%. For the same compound, in test [2], the inhibition at 1 µM came to 71% and the inhibition at 5 µM was found to be 71%.

(Values after patent EP2746253A1, “Novel compounds with skin lightening properties” (Unilever PLC, priority 2012, dated 2014).)
